# Test results: US20230286968A1, “ARYLOXAZOLO SPIRAL RING DERIVATIVES FOR THE TREATMENT AND PROPHYLAXIS OF HEPATITIS B VIRUS INFECTION” (Hoffmann-La Roche Inc., priority 2020, published 2023)
# Where two headings read alike, the source gives them in different places.
# Experiments:
# [1] = system: HBsAg; test: PHH natural infection assay, HBsAg (alphalisa); type: cell-based, HBV
# Protocol: (§1) Detailed procedures regarding primary human hepatocyte (PHH) HBV natural infection assay are described as below. One tube of frozen PHH (10 million cells) is thawed in 37° C. water bath and then transferred to 20 mL of PHH thawing medium (Sigma, InVitroGRO HT Medium, Cat. S03319) with gently mixing. The cells were then centrifuged at […] for 5 min, the supernatant was discarded and the tube was refilled with 25 mL of PHH plating medium (Sigma, InVitroGRO CP Medium, Cat. S03317). The tube was shaken very gently to re-suspend all cells, and then 50 μL of cells were transferred to each well 384-well collagen I coated plate with appropriate liquid handling equipment, e.g. Integra VIAFLO384 or Agilent Bravo. The cells were then cultured for 24 hours in a cell incubator. For HBV infection, after PHH attachment on the culture plate, the plating medium was removed and replenished with PHH culture medium containing HBV virus. The PHH culture medium was prepared with Dulbecco's Modified Eagle Medium (DMEM)/F12 (1:1 in volume ratio) containing 10% fetal bovine serum (Gibco, Cat. 10099141), 5 ng/mL human epidermal growth factor (Gibco, Cat.PHG0311L), 20 ng/mL dexamethasone (Sigma, Cat.D4902-100 mg), 250 ng/mL human recombinant insulin (Gibco, Cat.41400045) and 100 U/mL penicillin. HBV virus at 200 genome equivalent (GE) per cell with 4% PEG8000 (Sigma, Cat.P1458) containing culture medium were added to the PHH culture medium for infection. The cells were then cultured for 24 hours in cell incubator. Then the cell culture supernatant was removed. The HBV-infected PHH were cultured with sandwich culture method with PHH culture medium containing […] and 0.25 mg/mL matrix gel for 72 hours. The supernatant was then refreshed with PHH culture medium containing different concentrations of testing compounds for two times with 72-hour interval. At the end of treatment, the supernatant was collected for viral markers measurements, including HBsAg, HBeAg, HBV DNA and cytotoxicity. HBsAg and HBeAg were detected using alphalisa method using their specific antibodies. For HBV DNA detection, HBV DNA Quantitative Fluorescence Diagnostic Kit (Sansure Biotech Inc.) was used following the manufacture's protocol. Cytotoxicity was determined using Cell Counting Kit-8 (CCK8, Dojindo Molecular Technologies, Inc.).
# (§2) The compounds of the present invention were tested for their capacity to inhibit HBsAg and HBeAg as described herein.
# [2] = Cytotoxicity in PHH natural infection assay (Cell Counting Kit-8); type: cell-based; conditions: HBV-infected primary human hepatocytes, CCK8
# Protocol: as §1
# [3] = system: HBeAg; test: PHH natural infection assay, HBeAg (alphalisa); type: cell-based, HBV
# Protocol: as §1, §2
# [4] = Hepatitis B virus, Hepatocyte, read-out: HBsAg IC50, HBV-infected primary human hepatocytes, supernatant, alphalisa
# [5] = Hepatitis B virus, Hepatocyte, read-out: HBeAg IC50, HBV-infected primary human hepatocytes, supernatant, alphalisa
# [6] = read-out: HBsAg IC50, HBV-infected primary human hepatocytes, supernatant, alphalisa
# [7] = read-out: HBeAg IC50, HBV-infected primary human hepatocytes, supernatant, alphalisa
compound,measurement,setting,value
"CS(=O)(=O)N1CCC(C(=O)NC2CC3(C2)CC(c2nc4cc(Cl)ccc4o2)C3)C1 (stereo not drawn) [Example 69, N-[6-(5-chloro-1,3-benzoxazol-2-yl)spiro[3.3]heptan-2-yl]-1-methylsulfonyl-pyrrolidine-3-carboxamide]",IC50,[1]; [4],1.79 µM
same,CC50 at 144 h,[2],> 100 µM
same,IC50,[3]; [5],1.31 µM
"[H][C@]1(C(=O)N[C@]2([H])C[C@@]3(C2)C[C@@]([H])(c2nc4cc(Cl)ccc4o2)C3)CC(=O)N(C)C1 (single isomer, unassigned) [Example 94d]",IC50,[1]; [4],2.57 µM
same,CC50 at 144 h,[2],> 100 µM
same,IC50,[3]; [5],1.46 µM
"CC(=O)N1CCC(C(=O)NC2CC3(C2)CC(c2nc4cc(Cl)ccc4o2)C3)C1 (stereo not drawn) [Example 73, 1-acetyl-N-[6-(5-chloro-1,3-benzoxazol-2-yl)spiro[3.3]heptan-2-yl]pyrrolidine-3-carboxamide]",IC50,[1]; [4],9.05 µM
same,CC50 at 144 h,[2],> 10 µM
same,IC50,[3]; [5],6.39 µM
"CC(C)NC(=O)NC1CC2(C1)CC(c1nc3cc(Cl)ccc3o1)C2 (stereo not drawn) [Example 61, 1-[6-(5-chloro-1,3-benzoxazol-2-yl)spiro[3.3]heptan-2-yl]-3-isopropyl-urea]",IC50,[1]; [4],4.71 µM
same,CC50 at 144 h,[2],> 100 µM
same,IC50,[3]; [5],3.82 µM
"COc1cc(C(=O)NC2CC3(C2)CC(c2nc4cc(Cl)ccc4o2)C3)ccn1 (stereo not drawn) [Example 17, N-[6-(5-chloro-1,3-benzoxazol-2-yl)spiro[3.3]heptan-2-yl]-2-methoxy-pyridine-4-carboxamide]",IC50,[1]; [4],5.45 µM
same,CC50 at 144 h,[2],> 10 µM
same,IC50,[3]; [5],4.48 µM
"O=C(NC1CC2(C1)CC(c1nc3cc(Cl)ccc3o1)C2)C1CCS(=O)(=O)C1 (stereo not drawn) [Example 40, N-[6-(5-chloro-1,3-benzoxazol-2-yl)spiro[3.3]heptan-2-yl]-1,1-dioxo-thiolane-3-carboxamide]",IC50,[1]; [4],5.72 µM
same,CC50 at 144 h,[2],> 100 µM
same,IC50,[3]; [5],5.09 µM
"O=C(NCC1CCOC1)NC1CC2(C1)CC(c1nc3cc(Cl)ccc3o1)C2 (stereo not drawn) [Example 63, 1-[6-(5-chloro-1,3-benzoxazol-2-yl)spiro[3.3]heptan-2-yl]-3-(tetrahydrofuran-3-ylmethyl)urea]",IC50,[1]; [4],8.02 µM
same,CC50 at 144 h,[2],> 100 µM
same,IC50,[3]; [5],5.3 µM
"[H][C@]1(NC(=O)c2ccnc(S(=O)(=O)C3CC3)c2)C[C@]2(C1)C[C@]([H])(c1nc3cc(Cl)ccc3o1)C2 (single isomer, unassigned) [Example 84a, (Ra)—N-[6-(5-chloro-1,3-benzoxazol-2-yl)spiro[3.3]heptan-2-yl]-2-cyclopropylsulfonyl-pyridine-4-carboxamide]",IC50,[1]; [6],0.07 µM
same,CC50 at 144 h,[2],84.3 µM
same,IC50,[3]; [7],0.13 µM
"[H][C@]1(NC(=O)c2ccnc(S(C)(=O)=O)c2)C[C@]2(C1)C[C@]([H])(c1nc3cc(Cl)ccc3o1)C2 (single isomer, unassigned) [Example 87-a, (Ra)—N-[6-(5-chloro-1,3-benzoxazol-2-yl)spiro[3.3]heptan-2-yl]-2-methylsulfonyl-pyridine-4-carboxamide]",IC50,[1]; [6],0.2 µM
same,CC50 at 144 h,[2],> 10 µM
same,IC50,[3]; [7],0.22 µM
"O=C(NC1CC2(C1)CC(c1nc3cc(Cl)ccc3o1)C2)c1ccccn1 (stereo not drawn) [Example 1, N-[6-(5-chloro-1,3-benzoxazol-2-yl)spiro[3.3]heptan-2-yl]pyridine-2-carboxamide]",IC50,[1]; [4],9.75 µM
same,CC50 at 144 h,[2],74.8 µM
same,IC50,[3]; [5],7.89 µM
"O=C(NC1CC2(C1)CC(c1nc3cc(Cl)ccc3o1)C2)C1CC(=O)N(c2ccccc2)C1 (stereo not drawn) [Example 32, N-[6-(5-chloro-1,3-benzoxazol-2-yl)spiro[3.3]heptan-2-yl]-5-oxo-1-phenyl-pyrrolidine-3-carboxamide]",IC50,[1]; [4],8.27 µM
same,CC50 at 144 h,[2],> 100 µM
same,IC50,[3]; [5],5.44 µM
"NS(=O)(=O)CCC(=O)NC1CC2(C1)CC(c1nc3cc(Cl)ccc3o1)C2 (stereo not drawn) [Example 38, N-[6-(5-chloro-1,3-benzoxazol-2-yl)spiro[3.3]heptan-2-yl]-3-sulfamoyl-propanamide]",IC50,[1]; [4],9.48 µM
same,CC50 at 144 h,[2],> 10 µM
same,IC50,[3]; [5],5.49 µM
"O=C(NC1CC2(C1)CC(c1nc3cc(Cl)ccc3o1)C2)c1ccnc(NC2COC2)c1 (stereo not drawn) [Example 5, N-[6-(5-chloro-1,3-benzoxazol-2-yl)spiro[3.3]heptan-2-yl]-2-(oxetan-3-ylamino)pyridine-4-carboxamide]",IC50,[1]; [4],7.19 µM
same,CC50 at 144 h,[2],> 10 µM
same,IC50,[3]; [5],5.42 µM
"CN1C(C(=O)NC2CC3(C2)CC(c2nc4cc(Cl)ccc4o2)C3)CCS1(=O)=O (stereo not drawn) [Example 46, N-[6-(5-chloro-1,3-benzoxazol-2-yl)spiro[3.3]heptan-2-yl]-2-methyl-1,1-dioxo-1,2-thiazolidine-3-carboxamide]",IC50,[1]; [4],3.9 µM
same,CC50 at 144 h,[2],> 10 µM
same,IC50,[3]; [5],3.41 µM
"O=C(CC1CS(=O)(=O)C1)NC1CC2(C1)CC(c1nc3cc(Cl)ccc3o1)C2 (stereo not drawn) [Example 50, N-[6-(5-chloro-1,3-benzoxazol-2-yl)spiro[3.3]heptan-2-yl]-2-(1,1-dioxothietan-3-yl)acetamide]",IC50,[1]; [4],1.96 µM
same,CC50 at 144 h,[2],> 100 µM
same,IC50,[3]; [5],1.36 µM
"CS(=O)(=O)c1cc(C(=O)NC2CC3(C2)CC(c2nc4cc(Cl)ccc4o2)C3)c(Cl)cn1 (stereo not drawn) [Example 90, 5-Chloro-N-[6-(5-chloro-1,3-benzoxazol-2-yl)spiro[3.3]heptan-2-yl]-2-methylsulfonyl-pyridine-4-carboxamide]",IC50,[1]; [4],2.99 µM
same,CC50 at 144 h,[2],> 10 µM
same,IC50,[3]; [5],2.26 µM
"O=C(NC1CC2(C1)CC(c1nc3cc(Cl)ccc3o1)C2)c1cccnc1 (stereo not drawn) [Example 2, N-[6-(5-chloro-1,3-benzoxazol-2-yl)spiro[3.3]heptan-2-yl]pyridine-3-carboxamide]",IC50,[1]; [4],6.2 µM
same,CC50 at 144 h,[2],68.3 µM
same,IC50,[3]; [5],5.25 µM
"CCS(=O)(=O)c1cc(C(=O)N(C)C2CC3(CC(c4nc5cc(Cl)ccc5o4)C3)C2)ccn1 (stereo not drawn) [Example 93, N-[6-(5-chloro-1,3-benzoxazol-2-yl)spiro[3.3]heptan-2-yl]-2-ethylsulfonyl-N-methyl-pyridine-4-carboxamide]",IC50,[1]; [4],3.08 µM
same,CC50 at 144 h,[2],> 10 µM
same,IC50,[3]; [5],2.21 µM
"CNc1cc(C(=O)NC2CC3(C2)CC(c2nc4cc(Cl)ccc4o2)C3)ccn1 (stereo not drawn) [Example 97, N-[6-(5-chloro-1,3-benzoxazol-2-yl)spiro[3.3]heptan-2-yl]-2-(methylamino)pyridine-4-carboxamide]",IC50,[1]; [4],7.05 µM
same,CC50 at 144 h,[2],> 10 µM
same,IC50,[3]; [5],5.97 µM
"CN(C(=O)c1ccnc(S(C)(=O)=O)c1)C1CC2(CC(c3nc4cc(Cl)ccc4o3)C2)C1 (stereo not drawn) [Example 92, N-[6-(5-chloro-1,3-benzoxazol-2-yl)spiro[3.3]heptan-2-yl]-N-methyl-2-methylsulfonyl-pyridine-4-carboxamide]",IC50,[1]; [4],3.05 µM
same,CC50 at 144 h,[2],> 10 µM
same,IC50,[3]; [5],2.02 µM
"CC(C)CC(=O)NC1CC2(C1)CC(c1nc3cc(Cl)ccc3o1)C2 (stereo not drawn) [Example 28, N-[6-(5-chloro-1,3-benzoxazol-2-yl)spiro[3.3]heptan-2-yl]-3-methyl-butanamide]",IC50,[1]; [4],2.54 µM
same,CC50 at 144 h,[2],> 100 µM
same,IC50,[3]; [5],2.28 µM
"CCCNC(=O)NC1CC2(C1)CC(c1nc3cc(Cl)ccc3o1)C2 (stereo not drawn) [Example 60, 1-[6-(5-chloro-1,3-benzoxazol-2-yl)spiro[3.3]heptan-2-yl]-3-propyl-urea]",IC50,[1]; [4],7.19 µM
same,CC50 at 144 h,[2],> 100 µM
same,IC50,[3]; [5],5.1 µM
"O=C(NCC1CC(O)C1)NC1CC2(C1)CC(c1nc3cc(Cl)ccc3o1)C2 (stereo not drawn) [Example 64, 1-[6-(5-chloro-1,3-benzoxazol-2-yl)spiro[3.3]heptan-2-yl]-3-[(3-hydroxycyclobutyl)methyl]urea]",IC50,[1]; [4],5.62 µM
same,CC50 at 144 h,[2],84.8 µM
same,IC50,[3]; [5],4.47 µM
"CC1(C(=O)NC2CC3(C2)CC(c2nc4cc(Cl)ccc4o2)C3)CCS(=O)(=O)CC1 (stereo not drawn) [Example 54, N-(6-(5-chlorobenzo[d]oxazol-2-yl)spiro[3.3]heptan-2-yl)-4-methyltetrahydro-2H-thiopyran-4-carboxamide 1,1-dioxide]",IC50,[1]; [4],1.94 µM
same,CC50 at 144 h,[2],> 100 µM
same,IC50,[3]; [5],1.86 µM
"CS(=O)(=O)N1CC(CC(=O)NC2CC3(C2)CC(c2nc4cc(Cl)ccc4o2)C3)C1 (stereo not drawn) [Example 77, N-[6-(5-chloro-1,3-benzoxazol-2-yl)spiro[3.3]heptan-2-yl]-2-(1-methylsulfonylazetidin-3-yl)acetamide]",IC50,[1]; [4],7.08 µM
same,CC50 at 144 h,[2],> 10 µM
same,IC50,[3]; [5],4.35 µM
